What was measured:
[1] = Additive decomposition of peak excitation and emission wavelengths (model coefficients of A and B groups); details: for αi^em: influence of A group on peak emission wavelength; for αi^em / αi^ex: A group 1 as baseline; for αi^ex: influence of A group on peak excitation wavelength
Description: The chemical structure of the styryl library is illustrated in FIG. 3. […] Initial analysis focused on measurements of peak emission and excitation wavelength obtained for all styryl products showing a single, localized peak (there were 256 such compounds for emission wavelength, and 193 compounds for excitation wavelength). […] The wavelength for the styryl compound formed by joining A group i with B group j is denoted as λij (or more specifically, λij^ex for excitation wavelength and λij^em for emission wavelength). The additive model λij=ai+βj+εij was fit to the data using least squares yielding parameters αi^ex, αi^em, βj^ex, and βj^em that quantify the influence of each A and B group on the spectrum of the styryl product. […] (FIGS. 8A-8B). […] The predictions were made ignoring interactions between the two functional moieties in the styryl compound. The predicted values were obtained without bias, by holding out the data point to be predicted when training the model.
In preferred embodiments, using the cross-validation approach disclosed herein, each compound was held out in sequence, the model was trained using the remaining compounds, then the wavelength value for the held-out compound was predicted based on the resulting fitted model. This process produced correlations between measured and predicted values of ρ^em=0.78 (emission) and ρ^ex=0.69 (excitation).
Based on this analysis, the contribution of the A and B functional groups to the fluorescence of the styryl product is quantified using the fitted coefficients αi^ex, βj^ex, […], and βj^em. Since these coefficients are on a scale without origin, in some embodiments, the invention uses the first A group and B group as a baseline, so […], β1^ex=0, and so on. Table 3 contains the model coefficients of all A and B groups for peak excitation and emission wavelength.
Greater values of αi^ex, αi^em, βj^ex, and βj^em indicate greater peak wavelength. Greater values of αi^mito and […] indicate stronger mitochondrial localization. A groups 40 and 41 were not screened for localization. A groups 2, 29, and 33 only formed fluorescent products with a single B group, so were not included in the spectral analysis.
In some embodiments, the wavelength values for peak excitation and emission were fit to the additive model λij=αi+βj+εij, where εij denotes error that is made as small as possible in the fitting process. Using least squares to minimize the function [formula] over all compounds having experimental data yields coefficient estimates αi for each A group and βj for each B group. One set of coefficient estimates is obtained for the excitation values and another set is obtained for the emission values. To predict the wavelength of a new compound formed from A and B groups i* and j* the sum αi*+βj* is used.
In some embodiments, for both the spectral and localization analysis, cross-validation was used to obtain unbiased estimates of the prediction performance. Each compound was held out in sequence, and the coefficients αi and βj were fit to the remaining compounds. These values were then used to form a prediction for the held out compound, then the predicted and experimental values were compared to obtain a measure of the accuracy of prediction. Since the wavelength values are on a continuous scale, the predicted values were compared to the experimental values using Pearson correlation coefficients. The localization values are dichotomous, so the proportion of matching predictions was used to compare predicted and experimental localization values.

[2] = test system: mitochondria; assay: QSLR factorial logistic regression of mitochondrial localization (affinity coefficients, cross-validated prediction); design: species or system human; details: for αi^mito: influence of A group on mitochondrial localization, greater = stronger; for estimated A group affinity coefficient ai: mitochondrial affinity, ±5 for groups always or never mitochondrial
Description: The first column and first row contain the A group and B group labels. The second column and second row contain the estimated A group and B group affinity coefficients (ai and bj respectively). The interior of the table contains the value sij=ai+bj for each compound (where positive values of sij indicate predicted localization to mitochondria, and negative values of sij indicate predicted localization to a non-mitochondrial compartment). The subscript m indicates experimentally determined mitochondrial localization. The subscript o indicates experimentally determined non-mitochondrial localization. The darkened boxes indicate correctly predicted mitochondrial localizations under cross-validation.
Based on this matrix, factorial logistic regression (See, A. Agresti, Categorical Data Analysis, Wiley [2002]) was used to calculate mitochondrial affinity coefficients (ai and bj) for each A and B moiety. (Table 1). Since it is not necessary to observe all possible pairings between A and B building blocks to estimate the affinity coefficients, the QSLR approach can predict localization of unmeasured styryl molecules based on a minimal set of experimentally-determined localizations (see Methods). The methods of the present invention allow assessment of predictivity using the cross-validation technique by holding out one compound and fitting the affinity coefficients using the remaining compounds, predictivity can be assessed by comparing the actual localization of the held-out compound to its predicted localization. Repeating this for every measured compound in the library yields an error rate for the procedure.
Briefly, this technique assigns quantitative scores to each A group (αi^mito) and to each B group (βj^mito), in such a way that αi^mito+βj^mito is positive for compounds with mitochondrial localization, and is negative for compounds lacking mitochondrial localization. […] In additional embodiments, same analysis can be applied to organelles other than mitochondria, provided there are a sufficient number of localizations to specific non-mitochondrial organelles in the combinatorial library of interest for reliable statistical calculations.
In certain embodiments, the predictive performance of the above method was assessed using a cross-validation approach by calculating the proportion of all compounds that are correctly predicted. For cross-validation, each styryl product was set aside in sequence, and the factorial logistic model was fit to the remaining data. Then the resulting A and B scores for the held-out compound were summed. If the sum was positive, the held-out compound was predicted to be mitochondrial, while if the sum was negative, the held-out compound was predicted to be non-mitochondrial. […] The baseline performance of the method scored 104 correct out of 145, or 72%. This number is highly statistically significant compared to random guessing (p-value ˜10^−7). Thus, across the entire library, A and B moieties appear to contribute to localization in an independent, additive fashion.
In some embodiments, subcellular localization data were converted to binary (0/1) values by assigning a value Gij=1 if compound i,j localized to mitochondria (even if it localized to other […] as well), and assigning Gij=0 if compound i,j localized exclusively to any non-mitochondrial cellular structure. Compounds with no localization were omitted from this part of the analysis. The αi and βj coefficients for A or B groups that are always observed to localize to mitochondria, or that never localize to mitochondria, were set to +/−5, respectively. The binary localization data were analyzed using factorial logistic regression. […]

Row | SMILES | αi^em [1] [nm] | αi^ex [1] [nm] | influence of group on peak wavelength [1] | αi^mito [2] | estimated A group affinity coefficient ai [2] | influence of A group on mitochondrial localization [2]
1 | COc1ccc(C=O)cc1 [A group 10] | −23.7 | 8.1 | – | 1.3 | 1.3 | –
2 | COc1ccc(C=O)cc1OC [A group 11] | −26.7 | −14.3 | – | 5.0 | 5.0 | –
3 | O=Cc1ccc(OCc2ccccc2)c(OCc2ccccc2)c1 [A group 12] | −22.7 | −36.7 | – | −3.3 | −3.3 | –
4 | COc1cc(C=O)cc(OC)c1OC [A group 13] | 0.2 | −44.2 | – | 5.0 | 5.0 | –
5 | COc1ccc(C=O)c2ccccc12 [A group 14] | 0.3 | −1.6 | – | −1.2 | −1.2 | –
6 | COc1ccc(C=O)cc1O [A group 15] | −33.1 | −46.9 | – | −0.6 | −0.6 | –
7 | O=Cc1ccc(-c2ccccc2)cc1 [A group 17] | −46.6 | −14.3 | bluer | −5.0 | −5.0 | mitochondrial repulsion
8 | CC(=O)Nc1ccc(C=O)cc1 [A group 18] | 51.2 | −24.3 | strongly contribute towards the red end of the spectrum | 0.8 | 0.8 | –
9 | CN(C)c1ccc(C=O)cc1 [A group 19] | 49.6 | 26.0 | strongly contribute towards the red end of the spectrum | −0.2 | −0.2 | –
10 | O=Cc1ccccc1[N+](=O)[O-] [A group 20] | 44.5 | 6.5 | the far red shift is not observed | −2.7 | −2.7 | –
11 | COc1ccc2ccccc2c1C=O [A group 23] | −10.3 | 6.1 | – | −5.0 | −5.0 | –
12 | CN(C)c1ccc(C=O)c2ccccc12 [A group 27] | 72.0 | 11.1 | strongly contribute towards the red end of the spectrum | −0.3 | −0.3 | –
13 | O=Cc1c(F)c(F)c(F)c(F)c1F [A group 31] | 6.9 | −22.4 | – | 5.0 | 5.0 | –
14 | O=Cc1cccc2ccccc12 [A group 32] | −15.0 | −36.1 | – | 5.0 | 5.0 | –
15 | O=Cc1c2ccccc2cc2ccccc12 [A group 34] | 58.8 | 14.1 | redder | −5.0 | 5.0 | mitochondrial repulsion
16 | O=CC=Cc1ccccc1 [A group 35] | −8.3 | 0.0 | – | −1.8 | −1.8 | –
17 | O=CC=Cc1ccccc1[N+](=O)[O-] [A group 36] | 3.8 | −25.3 | the far red shift is not observed | 5.0 | 5.0 | –

Further lines, with some results ahead:

Row | αi^em [1] [nm] | αi^ex [1] [nm] | influence of group on peak wavelength [1] | SMILES | αi^mito [2] | estimated A group affinity coefficient ai [2] | influence of A group on mitochondrial localization [2]
18 | 38.5 | −44.1 | – | Cc1ccccc1C=O [A group 7] | 5.0 | 5.0 | –
19 | 38.5 | 10.9 | – | Cc1ccc(C=O)cc1 [A group 8] | 5.0 | 5.0 | –
20 | −17.6 | −36.7 | – | COc1ccccc1C=O [A group 9] | 5.0 | 5.0 | –
21 | −24.8 | −36.3 | – | O=Cc1ccc(O)cc1 [A group 16] | −1.9 | −1.9 | –
22 | 21.6 | −68.0 | the far red shift is not observed | O=Cc1cccc([N+](=O)[O-])c1 [A group 21] | 0.8 | 0.8 | –
23 | −10.3 | −52.8 | the far red shift is not observed | O=Cc1ccc([N+](=O)[O-])cc1 [A group 22] | 5.0 | 5.0 | –
24 | −24.2 | −7.2 | – | O=Cc1c[nH]c2ccccc12 [A group 24] | −1.7 | −1.7 | –
25 | 44.9 | 2.4 | – | O=Cc1ccc2c(c1)Cc1ccccc1-2 [A group 28] | −5.0 | −5.0 | –
26 | −8.0 | – | – | O=Cc1ccccc1F [A group 29] | 5.0 | 5.0 | –
27 | 50.1 | 7.4 | redder | O=Cc1ccc(F)cc1 [A group 30] | 5.0 | 5.0 | mitochondrial attraction
28 | −26.5 | – | bluer | O=Cc1ccc2ccccc2c1 [A group 33] | 5.0 | 5.0 | mitochondrial attraction

Source: patent US20070111251A1, “Chemical address tags” (priority 2003, published 2007)
